Test results published in US6787567B2, “Fungicidal active ingredients combinations” (Bayer Aktiengesellschaft, priority 2000, dated 2004).

System: Plasmopara viticola
Experiment: Plasmopara test (grapevine)/protective
Format: in vivo, Plasmopara viticola on grapevine
Conditions: protective, evaluation 6 days after inoculation
Description: Plasmopara Test (Grapevine)/Protective
Solvent: 49 parts by weight of acetone
Emulsifier: 1 part by weight of alkyl-aryl polyglycol ether
To produce a suitable preparation of active compound, 1 part by weight of active compound or active compound combination is mixed with the stated amounts of solvent and emulsifier, and the concentrate is diluted with water to the desired concentration, or a commercially available formulation of active compound or active compound combination is diluted with water to the desired concentration.
To test for protective activity, young plants are sprayed with the preparation of active compound at the stated application rate. After the spray coating has dried on, the plants are inoculated with an aqueous spore suspension of Plasmopara viticola and then remain in an incubation cabin at approximately 20° C. and 100% relative atmospheric humidity for 1 day. The plants are then placed in a greenhouse at approximately 21° C. and approximately 90% atmospheric humidity for 4 days. The plants are then moistened and then placed in an incubation cabin for 1 day.
Evaluation is carried out 6 days after the inoculation. 0% means an efficacy which corresponds to that of the control, whereas an efficacy of 100% means that no infection is observed.

| Compound | % efficacy (application rate 10 g/ha) [%] | % efficacy (application rate 100 g/ha) [%] |
| --- | --- | --- |
| CON=C(C(=O)NCCc1ccc(OC)c(OC)c1)c1ccc2c(c1)CCCC2 [Ib] | 66 |  |
| [Cl-].[Cu+2].[Cu+2].[OH-].[OH-].[OH-] [Copper oxychloride (XXXXVIa), copper oxychloride] |  | 26 |
